From US20170189496A1, “USE OF PHOSPHORYLATION PATHWAY-RELATED FACTOR IN REGULATING FUNCTION OF REGULATORY T CELL” (Institut Pasteur of Shanghai, Chinese Academy of Sciences, priority 2012, published 2017) come the findings set out here.

What all share (format): cell-based
For assay [1], the target named is T1, PIM1 (Homo sapiens, UniProt P11309). Description: Histone H3 S10 phosphorylation induced by PIM1 in HEK293T cells (immunoblot). On the set-up: expressed in transfected cells; host or cells: HEK293T. The conditions noted are these: 50 μM, 12 h. The procedure:
FLAG-PIM1 was transfected into HEK293T cells. 36 h later, cells were treated with 50 μM of kaempferol for 12 h. 48 h after cell transfection, cells were treated in whole cell lysis solution. The levels of phosphorylated (Phospho)-histone H3S10, histone H3, and PIM1 were detected directly by immunoblot.
(§1) FLAG-PIM1 was transfected and MYC-FOXP3 and FLAG-PIM1 co-transfected into HEK293T cells. After 36 h, HEK293 was used as blank control group and each group was treated with 50 μM of kaempferol for 12 h. After 48 h, cells collected and lysed by cell lysis buffer. The levels of pS422-FOXP3, FOXP3, phosphorylated-histone H3 (Ser10), histone H3, and GAPDH were detected directly by immunoblot.
(§2) Protein samples were subjected to SDS-PAGE, and then transferred to nitrocellulose membrane, which was then sealed in TBST containing 5% nonfat dry milk or 3% bovine serum albumin for 1 h. Primary antibody was added and incubated for 1 h and then HRP-conjugated secondary antibody was added and incubated for 1 h, and results shown by exposure with ECL substrates.
HEK293T cells were co-transfected with MYC-FOXP3 and FLAG-PIM1. 36 h later, cells were treated with 50 μM of kaempferol for 12 h. Cells were collected at 48h after transfection and directly sonicated in SDS-loading buffer, and lysed by boiling.
HEK293T cells were transfected with FLAG-PIM1, and co-transfected with MYC-FOXP3 and FLAG-PIM1. 36 h later, HEK293 was used as blank control group and each group was treated with 50 μM of kaempferol for 12 h, respectively. Cells were collected alter 48 h and lysed with cell lysis buffer. The levels of pS422-FOXP3, FOXP3, histone H3 Ser10 phosphorylation, histone H3, and GAPDH were directly detected by immunoblot (results shown in FIG. 12).

The test system of assay [2] is Jurkat cells stably expressing HA-FOXP3. Description: FOXP3 protein degradation induced by PMA/LPS in Jurkat cells stably expressing HA-FOXP3 (immunoblot). Conditions: PMA 25 ng/ml + LPS 1 ng/ml, 24 h; kaempferol 50 μM, PIM1 inhibitor 100 nM, PI3K inhibitor 10 μg/ml; DMSO control. The procedure: HA-FOXP3-Jurkat stable expression cells were treated with PMA (25 ng/ml) and LPS (1 ng/ml). 50 μM kaempferol, 100 nM PIM1 inhibitors (specifically of 4-[3-(4-chlorophenyl)-2,1-benzisoxazol-5-yl]-2-pyrimidinamine), and 10 μg/ml PI3K inhibitor (LY294002) were added, and DMSO as a control. Cells were collected 24 h later. The levels of FOXP3 and GAPDH were detected directly by immunoblot.
Human embryonic kidney cell line HEK293 was co-transfected with FUGW-HA-FOXP3, del 8.9 and VSV-G. Cell culture supernatants were collected 48 h and 72 h after transfection. Viruses were purified by ultracentrifugation and used to infect Jurkat E6.1 to ultimately obtain Jurkat cell lines stably expressing HA-FOXP3.
as §2
Jurkat cells stably expressing HA-FOXP3 were treated with PMA (25 ng/ml) and LPS (1 ng/ml). Each sample was added 50 μM kaempferol, 100 nM PIM1 inhibitor (i.e., 4-[3-(4-chlorophenyl)-2,1-benzisoxazol-5-yl]-2-pyrimidinamine), and 10 μg/ml PI3K inhibitor (LY294002). DMSO serves as a control. Cells were collected after 24 h.
Background: A western blot detects proteins with antibodies after separation by electrophoresis.

For a further assay, the target named is T2, PIM2 (Homo sapiens, UniProt Q9P1W9).
T2 construct: expressed in transfected cells; host or cells: HEK293T
In words: FOXP3 phosphorylation induced by PIM2 in HEK293T cells (immunoblot). The conditions noted are these: Myc-FOXP3 + FLAG-PIM2, 50 μM, 12 h. The procedure: (§3) Myc-FOXP3, FLAG-PIM1, FLAG-PIM2, and FLAG-PIM3 were co-transfected into HEK293T cells. 36 h later, cells were treated with 50 μM of kaempferol for 12 h. Cells were collected 48 h after cell transfection.
as §2
(§4) HEK293T cells were co-transfected, respectively, with Myc-FOXP3+FLAG-PIM1, Myc-FOXP3+FLAG-PIM2, and Myc-FOXP3+FLAG-PIM3. 36 h later, cells were treated with 50 μM kaempferol for 12 h. After 48 h. cells were collected and lysed with cell lysis buffer.

A further assay deals with T3, PIM3 (Homo sapiens, UniProt Q86V86).
T3 construct: expressed in transfected cells; host or cells: HEK293T
Description: FOXP3 phosphorylation induced by PIM3 in HEK293T cells (immunoblot). Conditions: Myc-FOXP3 + FLAG-PIM3, 50 μM, 12 h. The protocol: as §3, §2, §4

In assay [3] the test system is induced Treg cells from human CD4+ CD45RA+ natural T cells. Description: FOXP3 and CTLA4 expression in induced Treg (flow cytometry). Conditions: 50 uM, 48 h, vs DMSO control group. The protocol:
Human CD4+ CD45RA+ natural T cells (i.e., natural T cells rather than Treg cells) were sorted by BD FACS Aria II flow sorter and expanded by Bead-CD3/CD28 (2:1), IL-2 (100 U/ml), and TGF-β (1 ng/ml, 3 ng/ml, and 5 ng/ml) for 5 days. DMSO or kaempferol (50 uM) was added and treated for 48 h. Flow cytometry analysis was performed after PE-FOXP3 (FIG. 14B) and APC-CTLA4 (FIG. 14A) antibody staining.
Human CD4+ CD45RA+ natural T cells (i.e., natural T cells rather than Treg cells) were sorted by BD FACS Aria II flow sorter and expanded using Bead-CD3/CD28 (2:1). IL-2 (100 U/ml), and TGF-β (1 ng/ml, 3 ng/ml, and 5 ng/ml) for 5 days to obtain the induced Treg cells. DMSO or kaempferol (50 uM) was added and treated for 48 h.
(In general: Flow cytometry measures light scatter and fluorescence of single cells or particles in a stream.)

Assay [4] concerns the target T1, PIM1. Description: FOXP3 S422 phosphorylation induced by PIM1 in HEK293T cells (immunoblot). On the set-up: expressed in transfected cells; host or cells: HEK293T. The protocol: Myc-FOXP3 and FLAG-PIM1 were co-transfected into HEK293T cells. After 36 h, cells were treated, respectively, with 50 nM, 10 nM, 2 nM, 0.4 nM of PIM1 inhibitor and 50 μM, 10 μM, 2 μM, 0.4 μM, 0.08 μM of kaempferol for 12 h. Cells were collected at 48 h after cell transfection.
as §3, §1
Protein samples were subjected to SDS-PAGE, and then transferred to nitrocellulose membrane, which was then sealed in TBST containing 5% nonfat dry milk or 3% bovine serum albumin for 1 h. […]
HEK293T cells were transfected with FLAG-PIM1, and co-transfected with MYC-FOXP3 and FLAG-PIM1. […] The levels of pS422-FOXP3, FOXP3, histone H3 Ser10 phosphorylation, histone H3, and GAPDH were directly detected by immunoblot (results shown in FIG. 12).

[5] abbreviates: HEK293T transfected with FLAG-PIM1.

Molecules are shown by their SMILES. Entries after “also recorded” stand apart in the source; their conditions may differ.

T1 sequence (P11309 whole entry): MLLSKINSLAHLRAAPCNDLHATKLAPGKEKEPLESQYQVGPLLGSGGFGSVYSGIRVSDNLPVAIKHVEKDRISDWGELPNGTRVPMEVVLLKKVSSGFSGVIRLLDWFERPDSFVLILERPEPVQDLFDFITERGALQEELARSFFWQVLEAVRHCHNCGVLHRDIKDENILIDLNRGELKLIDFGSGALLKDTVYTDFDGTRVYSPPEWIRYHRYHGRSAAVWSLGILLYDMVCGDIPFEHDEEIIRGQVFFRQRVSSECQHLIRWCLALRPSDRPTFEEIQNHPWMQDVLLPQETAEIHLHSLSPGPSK
T2 sequence (Q9P1W9 whole entry): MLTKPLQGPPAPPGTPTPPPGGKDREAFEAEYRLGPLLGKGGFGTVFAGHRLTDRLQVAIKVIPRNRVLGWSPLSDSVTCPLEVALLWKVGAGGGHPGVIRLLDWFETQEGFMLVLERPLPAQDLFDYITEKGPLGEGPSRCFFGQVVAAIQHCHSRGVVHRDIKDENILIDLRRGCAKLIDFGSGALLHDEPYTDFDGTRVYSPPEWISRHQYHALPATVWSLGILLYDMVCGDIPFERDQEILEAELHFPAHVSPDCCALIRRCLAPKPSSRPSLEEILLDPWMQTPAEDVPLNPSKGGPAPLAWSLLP

Consider `O=c1c(O)c(-c2ccc(O)cc2)oc2cc(O)cc(O)c12` [kaempferol], for which, on PIM1 [1] (setting [5]), the PIM1 expression levels entry is “does not affect” and the “histone H3 S10 phosphorylation induced by PIM1” value was “inhibits; also recorded: can inhibit”. At PIM1 [1] (HEK293 blank control group (no PIM1 transfection)), the “histone H3 S10 phosphorylation in the control group” value was “does not affect”. The FOXP3 protein degradation result in assay [2] was “can inhibit”. The “FOXP3 phosphorylation levels induced by PIM2” value at PIM2 was “does not affect”. Besides, the “FOXP3 phosphorylation levels induced by PIM3” value at PIM3 is on record as “does not affect”. Further, in assay [3], the “CLTA4+ FOXP3+ Treg cell levels” value is on record as “significantly increase” and the FOXP3 expression levels result was “significantly increase”. In addition, the “FOXP3 S422 phosphorylation, dose response” value on PIM1 [4] (MYC-FOXP3 + FLAG-PIM1, 50, 10, 2, 0.4, 0.08 μM for 12 h) is “inhibits FOXP3 S422 phosphorylation in a dose-dependent manner”. At PIM1 [4] (Myc-FOXP3 + FLAG-PIM1, 50 μM, 12 h), the “FOXP3 S422 phosphorylation induced by PIM1” value was “specifically inhibits; also recorded: can inhibit”.
